Patent US20230312529A1, “PYRIMIDINE SMALL-MOLECULE COMPOUND AND APPLICATION THEREOF” (WENZHOU MEDICAL UNIVERSITY, priority 2021, published 2023)

Columns and labels:
Experiment in all cases: Caliper Mobility Shift kinase inhibition test
Type in all cases: biochemical
[1] = molecular target: ABL1 (Homo sapiens (Human), UniProt P00519); settings: 100 nM; for inhibition at 0.1 µM: read-out: inhibitory rate on ABL1
Procedure: (§1) The method adopted in the test was Caliper Mobility Shift Assay, which was a detection platform based on the mobility detection technology of microfluidic chip technology. […] Collected data was tested on Caliper to yield that inhibition ratio to kinase activity=(max−conversion)/(max−min)×100. “max” was DMSO control without adding compound, and “min” was low control. When IC50 was determined, each sample was provided with 10 dilutions, each with 2 multiple holes, and repeated for 3 times.

[2] = molecular target: PDGFRβ (Homo sapiens (Human), UniProt P09619); settings: for inhibition at 0.1 µM / inhibitory rate on PDGFR-β: 100 nM; for inhibition at 0.1 µM: read-out: inhibitory rate on PDGFR-β; for IC50: read-out: IC50 PDGFR-β
PDGFRβ, sequence (P09619 33-1106): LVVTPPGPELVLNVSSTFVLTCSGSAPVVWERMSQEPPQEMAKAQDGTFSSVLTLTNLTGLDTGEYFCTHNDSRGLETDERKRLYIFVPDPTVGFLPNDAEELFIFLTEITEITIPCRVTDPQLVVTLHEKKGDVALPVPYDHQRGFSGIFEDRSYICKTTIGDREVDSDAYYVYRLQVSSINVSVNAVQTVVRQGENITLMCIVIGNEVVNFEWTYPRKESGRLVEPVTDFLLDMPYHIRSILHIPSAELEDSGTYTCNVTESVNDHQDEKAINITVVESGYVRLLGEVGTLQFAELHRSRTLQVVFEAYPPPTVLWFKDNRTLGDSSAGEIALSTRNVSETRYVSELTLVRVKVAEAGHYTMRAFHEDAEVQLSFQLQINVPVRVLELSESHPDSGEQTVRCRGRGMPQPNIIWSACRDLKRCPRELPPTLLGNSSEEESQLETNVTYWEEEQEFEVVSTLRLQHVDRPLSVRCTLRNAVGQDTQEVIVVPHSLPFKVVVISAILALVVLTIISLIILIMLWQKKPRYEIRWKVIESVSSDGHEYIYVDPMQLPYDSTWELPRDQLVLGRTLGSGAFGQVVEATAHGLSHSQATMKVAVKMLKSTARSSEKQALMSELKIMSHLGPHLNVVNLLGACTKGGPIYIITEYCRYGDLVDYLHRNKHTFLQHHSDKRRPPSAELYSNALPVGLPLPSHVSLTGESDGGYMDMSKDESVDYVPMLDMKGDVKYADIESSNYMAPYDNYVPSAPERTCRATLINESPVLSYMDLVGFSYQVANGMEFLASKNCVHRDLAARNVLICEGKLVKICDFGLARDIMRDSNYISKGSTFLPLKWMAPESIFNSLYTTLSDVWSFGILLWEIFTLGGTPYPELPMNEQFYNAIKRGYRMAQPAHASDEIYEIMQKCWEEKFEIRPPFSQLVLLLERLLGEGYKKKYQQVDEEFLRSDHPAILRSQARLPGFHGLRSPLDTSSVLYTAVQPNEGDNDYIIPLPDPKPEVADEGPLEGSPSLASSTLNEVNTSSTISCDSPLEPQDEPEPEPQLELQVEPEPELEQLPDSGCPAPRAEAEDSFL
Procedure: (§2) The method adopted in the test was Caliper Mobility Shift Assay, which was a detection platform based on the mobility detection technology of microfluidic chip technology. Test steps: 1.25× kinase reaction buffer (62.5 mmol/L HEPES, pH 7.5; 0.001875% Brij-35; 12.5 mmol/L MgCl2; 2.5 mM DTT) and kinase reaction stop solution (100 mmol/L HEPES, pH 7.5; 0.015% Brij-35; 0.2% Coating Reagent #3) were configured. […] Collected data was tested on Caliper to yield that inhibition ratio to kinase activity=(max−conversion)/(max−min)×100. “max” was DMSO control without adding compound, and “min” was low control. When IC50 was determined, each sample was provided with 10 dilutions, each with 2 multiple holes, and repeated for 3 times.
According to the above-mentioned method for measuring kinase inhibitory activity, the inhibitory activity of the active compounds on other multiple kinases was measured to characterize the kinase selectivity of active inhibitors.

[3] = molecular target: FLT3 (Homo sapiens (Human), UniProt P36888); settings: 100 nM; for inhibition at 0.1 µM: read-out: inhibitory rate on FLT3
FLT3, sequence (P36888 27-993): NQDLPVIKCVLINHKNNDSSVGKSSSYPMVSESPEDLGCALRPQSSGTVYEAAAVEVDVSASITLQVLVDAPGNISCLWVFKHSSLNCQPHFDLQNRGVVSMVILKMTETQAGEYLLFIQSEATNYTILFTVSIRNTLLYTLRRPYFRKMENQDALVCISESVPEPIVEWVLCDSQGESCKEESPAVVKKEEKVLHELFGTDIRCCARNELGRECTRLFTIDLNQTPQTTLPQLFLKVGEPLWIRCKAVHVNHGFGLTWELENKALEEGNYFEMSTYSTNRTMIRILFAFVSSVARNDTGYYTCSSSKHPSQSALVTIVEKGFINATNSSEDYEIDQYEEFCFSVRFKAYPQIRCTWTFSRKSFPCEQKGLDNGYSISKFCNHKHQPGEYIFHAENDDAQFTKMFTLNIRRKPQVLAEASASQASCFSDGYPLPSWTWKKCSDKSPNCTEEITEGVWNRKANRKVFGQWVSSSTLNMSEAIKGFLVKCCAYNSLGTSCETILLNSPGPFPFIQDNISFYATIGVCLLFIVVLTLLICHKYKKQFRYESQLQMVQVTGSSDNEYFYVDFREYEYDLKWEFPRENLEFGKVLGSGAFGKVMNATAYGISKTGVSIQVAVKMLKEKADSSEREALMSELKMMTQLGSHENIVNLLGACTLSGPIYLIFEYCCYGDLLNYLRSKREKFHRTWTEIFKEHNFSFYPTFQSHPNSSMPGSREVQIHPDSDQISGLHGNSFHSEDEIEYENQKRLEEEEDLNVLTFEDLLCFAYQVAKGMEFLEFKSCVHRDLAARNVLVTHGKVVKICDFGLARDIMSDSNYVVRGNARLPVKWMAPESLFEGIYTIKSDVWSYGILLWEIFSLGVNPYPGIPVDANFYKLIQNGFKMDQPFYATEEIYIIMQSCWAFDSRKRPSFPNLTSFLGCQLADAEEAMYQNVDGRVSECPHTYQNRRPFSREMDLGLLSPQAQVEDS
Procedure: as §2

[4] = molecular target: PDGFRα (Homo sapiens (Human), UniProt P16234); settings: 100 nM
PDGFRα, sequence (P16234 24-1089): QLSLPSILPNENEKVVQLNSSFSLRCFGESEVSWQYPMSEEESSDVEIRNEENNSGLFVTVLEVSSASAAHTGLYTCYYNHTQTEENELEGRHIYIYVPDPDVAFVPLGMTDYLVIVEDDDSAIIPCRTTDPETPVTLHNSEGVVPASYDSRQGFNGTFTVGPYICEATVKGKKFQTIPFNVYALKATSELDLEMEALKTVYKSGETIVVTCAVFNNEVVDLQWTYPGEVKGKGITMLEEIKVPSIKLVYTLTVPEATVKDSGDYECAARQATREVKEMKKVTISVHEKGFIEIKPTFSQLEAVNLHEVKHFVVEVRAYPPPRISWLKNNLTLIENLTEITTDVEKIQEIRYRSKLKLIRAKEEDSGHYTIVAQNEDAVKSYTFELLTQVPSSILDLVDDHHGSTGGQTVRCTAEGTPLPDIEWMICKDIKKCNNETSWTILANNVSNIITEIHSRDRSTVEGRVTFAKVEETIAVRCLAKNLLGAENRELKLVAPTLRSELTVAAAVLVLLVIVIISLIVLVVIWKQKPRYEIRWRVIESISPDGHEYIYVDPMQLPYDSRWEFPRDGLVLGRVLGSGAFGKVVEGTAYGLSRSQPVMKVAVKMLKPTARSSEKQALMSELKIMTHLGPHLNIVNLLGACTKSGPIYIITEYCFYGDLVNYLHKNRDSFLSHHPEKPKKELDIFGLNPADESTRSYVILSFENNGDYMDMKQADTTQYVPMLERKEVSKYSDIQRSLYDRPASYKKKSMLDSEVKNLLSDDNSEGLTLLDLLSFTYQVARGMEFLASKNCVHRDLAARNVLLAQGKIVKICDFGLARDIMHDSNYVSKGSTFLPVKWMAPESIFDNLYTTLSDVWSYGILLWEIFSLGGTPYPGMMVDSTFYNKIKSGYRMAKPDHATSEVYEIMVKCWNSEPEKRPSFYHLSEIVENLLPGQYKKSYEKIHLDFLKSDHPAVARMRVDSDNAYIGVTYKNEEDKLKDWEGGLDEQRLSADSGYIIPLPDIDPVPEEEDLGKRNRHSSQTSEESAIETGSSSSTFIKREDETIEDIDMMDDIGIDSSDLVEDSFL
Procedure: as §1

ABL1, sequence (P00519 whole entry): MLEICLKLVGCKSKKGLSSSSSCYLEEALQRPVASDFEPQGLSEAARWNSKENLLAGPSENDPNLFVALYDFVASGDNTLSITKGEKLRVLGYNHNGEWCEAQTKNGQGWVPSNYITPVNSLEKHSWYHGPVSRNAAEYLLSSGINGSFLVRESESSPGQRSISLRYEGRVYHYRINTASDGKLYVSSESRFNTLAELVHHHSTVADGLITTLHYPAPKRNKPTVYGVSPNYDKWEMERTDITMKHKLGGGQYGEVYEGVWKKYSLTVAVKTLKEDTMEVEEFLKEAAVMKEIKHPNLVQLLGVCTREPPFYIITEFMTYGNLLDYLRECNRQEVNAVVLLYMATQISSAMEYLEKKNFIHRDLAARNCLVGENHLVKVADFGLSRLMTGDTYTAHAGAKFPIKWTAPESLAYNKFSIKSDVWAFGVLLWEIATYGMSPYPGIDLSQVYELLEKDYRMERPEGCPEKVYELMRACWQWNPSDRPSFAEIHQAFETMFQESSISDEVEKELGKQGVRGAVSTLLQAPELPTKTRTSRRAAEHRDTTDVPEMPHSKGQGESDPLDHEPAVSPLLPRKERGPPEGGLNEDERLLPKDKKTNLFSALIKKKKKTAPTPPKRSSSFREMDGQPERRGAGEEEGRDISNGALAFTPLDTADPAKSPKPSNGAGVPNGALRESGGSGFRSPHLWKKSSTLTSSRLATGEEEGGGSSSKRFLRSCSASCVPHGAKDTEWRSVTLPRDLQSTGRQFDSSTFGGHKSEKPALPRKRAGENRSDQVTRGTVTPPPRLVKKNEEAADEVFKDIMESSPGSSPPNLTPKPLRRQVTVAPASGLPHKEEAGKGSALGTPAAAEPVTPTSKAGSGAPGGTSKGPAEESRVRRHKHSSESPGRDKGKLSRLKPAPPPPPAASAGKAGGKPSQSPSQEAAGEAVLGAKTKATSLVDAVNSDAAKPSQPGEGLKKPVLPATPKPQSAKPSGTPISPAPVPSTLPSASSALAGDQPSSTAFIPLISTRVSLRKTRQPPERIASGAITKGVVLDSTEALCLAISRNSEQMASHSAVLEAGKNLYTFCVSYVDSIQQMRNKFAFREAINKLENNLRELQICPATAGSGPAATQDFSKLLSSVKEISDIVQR

SMILES: CN1CCN(c2ccc(Nc3ncc(F)c(Nc4ccc5cn[nH]c5c4)n3)cc2)CC1 [Compound 3a, 5-fluoro-N^4-(1H-indazol-6-yl)-N^2-(4-(4-methylpiperazine-1-yl)phenyl)pyrimidine-2,4-diamine]
- inhibition at 0.1 µM [1]: 90.4%
- inhibition at 0.1 µM [2]: 94.4%
- inhibition at 0.1 µM [3]: 87.5%

SMILES: CN1CCN(c2ccc(Nc3ncc(Cl)c(Nc4ccc5cn[nH]c5c4)n3)cc2)CC1 [Compound 3b, 5-chloro-N^4-(1H-indazol-6-yl)-N^2-(4-(4-methylpiperazine-1-yl)phenyl)pyrimidine-2,4-diamine]
- inhibition at 0.1 µM [1]: 95.1%
- inhibition at 0.1 µM [2]: 95.8%
- inhibition at 0.1 µM [3]: 90.2%

SMILES: CN1CCN(c2ccc(Nc3ncc(C(F)(F)F)c(Nc4ccc5cn[nH]c5c4)n3)cc2)CC1 [Compound 3c, N^4-(1H-indazol-6-yl)-N^2-(4-(4-methylpiperazine-1-yl)phenyl)-5-(trifluoromethyl)pyrimidine-2,4-diamine]
- inhibition at 0.1 µM [1]: 84.2%
- inhibition at 0.1 µM [2]: 81%
- inhibition at 0.1 µM [3]: 78.6%

SMILES: Cc1cnc(Nc2ccc(N3CCN(C)CC3)cc2)nc1Nc1ccc2cn[nH]c2c1 [Compound 3d, N^4-(1H-indazol-6-yl)-5-methyl-N^2-(4-(4-methylpiperazine-1-yl)phenyl)pyrimidine-2,4-diamine]
- inhibition at 0.1 µM [1]: 95.2%
- inhibition at 0.1 µM [2]: 99.6%
- inhibition at 0.1 µM [3]: 90.5%

SMILES: COc1cnc(Nc2ccc(N3CCN(C)CC3)cc2)nc1Nc1ccc2cn[nH]c2c1 [Compound 3e, N^4-(1H-indazol-6-yl)-5-methoxy-N^2-(4-(4-methylpiperazine-1-yl)phenyl)pyrimidine-2,4-diamine]
- inhibition at 0.1 µM [1]: 54.3%
- inhibition at 0.1 µM [2]: 55%
- inhibition at 0.1 µM [3]: 51.2%

SMILES: CCOC(=O)c1cnc(Nc2ccc(N3CCN(C)CC3)cc2)nc1Nc1ccc2cn[nH]c2c1 [Compound 3f, Ethyl-4-((1H-indazol-6-yl)amino)-2-((4-(4-methylpiperazine-1-yl)phenyl)amino)pyrimidine-5-carboxylate]
- inhibition at 0.1 µM [1]: 4.3%
- inhibition at 0.1 µM [2]: 3.5%
- inhibition at 0.1 µM [3]: 34.8%

SMILES: CN1CCN(c2ccc(Nc3nc(Nc4ccc5cn[nH]c5c4)cc(C(F)(F)F)n3)cc2)CC1 [Compound 3g, N^4-(1H-indazol-6-yl)-N^2-(4-(4-methylpiperazine-1-yl)phenyl)-6-(trifluoromethyl)pyrimidine-2,4-diamine]
- inhibition at 0.1 µM [1]: 6.9%
- inhibition at 0.1 µM [2]: 7.2%
- inhibition at 0.1 µM [3]: 14.6%

SMILES: Cc1cc(Nc2ccc3cn[nH]c3c2)nc(Nc2ccc(N3CCN(C)CC3)cc2)n1 [Compound 3h]
- inhibitory rate on ABL1 [1]: 5.9%
- inhibitory rate on PDGFR-β [2]: 21.2%
- inhibitory rate on FLT3 [3]: 13.8%

SMILES: Cc1cc2c(Nc3ccc4cn[nH]c4c3)nc(Nc3ccc(N4CCN(C)CC4)cc3)nc2s1 [Compound 3i]
- inhibitory rate on ABL1 [1]: 23.6%
- inhibitory rate on PDGFR-α [4]: 6.6%
- inhibitory rate on PDGFR-β [2]: 30.7%
- inhibitory rate on FLT3 [3]: 42.6%

SMILES: Cc1cnc(Nc2ccc(N3CCN(C)CC3)cc2)nc1Nc1cccc2[nH]ccc12 [Compound 5b]
- inhibitory rate on ABL1 [1]: 78.8%
- inhibitory rate on PDGFR-β [2]: 90.3%
- inhibitory rate on FLT3 [3]: 60.9%

SMILES: Cc1cnc(Nc2ccc(N3CCN(C)CC3)cc2)nc1Nc1ccc2c(cnn2C)c1 [Compound 5c, 5-methyl-N^4-(1-methyl-1H-indazol-5-yl)-N^2-(4-(4-methylpiperazine-1-yl)phenyl)pyrimidine-2,4-diamine]
- inhibition at 0.1 µM [1]: 58.9%
- inhibition at 0.1 µM [2]: 79.2%
- inhibition at 0.1 µM [3]: 65.4%

SMILES: Cc1cnc(Nc2ccc(N3CCN(C)CC3)cc2)nc1Nc1ccc2[nH]ncc2c1 [Compound 5d]
- inhibitory rate on ABL1 [1]: 80.9%
- inhibitory rate on PDGFR-β [2]: 84.1%
- inhibitory rate on FLT3 [3]: 80.4%

SMILES: Cc1cnc(Nc2ccc(N3CCN(C)CC3)cc2)nc1Nc1ccc2nccnc2c1 [Compound 5e, 5-methyl-N^2-(4-(4-methylpiperazine-1-yl)phenyl)-N^4-(benzopyrazine-6-yl)-pyrimidine-2,4-diamine]
- inhibitory rate on ABL1 [1]: 65.5%
- inhibition at 0.1 µM [2]: 74.1%
- inhibitory rate on FLT3 [3]: 69.8%

SMILES: Cc1cnc(Nc2ccc(N3CCN(C)CC3)cc2)nc1Nc1ccc2nccnc2c1 [Compound 5f, 5-methyl-N^2-(4-(4-methylpiperazine-1-yl)phenyl)-N^4-(quinoxaline-7-yl)-pyrimidine-2,4-diamine]
- inhibitory rate on ABL1 [1]: 90.2%
- inhibitory rate on PDGFR-β [2]: 91.0%
- inhibitory rate on FLT3 [3]: 90.5%

SMILES: Cc1cnc(Nc2ccc(N3CCN(C)CC3)cc2)nc1Nc1ccc2c(c1)CCCC2 [Compound 5g, 5-methyl-N^2-(4-(4-methylpiperazine-1-yl)phenyl)-N^4-(5,6,7,8-tetrahydronaphthalene-2-yl)-pyrimidine-2,4-diamine]
- inhibition at 0.1 µM [1]: 89.2%
- inhibition at 0.1 µM [2]: 90.4%
- inhibition at 0.1 µM [3]: 85.7%

SMILES: Cc1cnc(Nc2ccc(N3CCN(C)CC3)cc2)nc1Nc1ccc2c(c1)CCC2 [Compound 5h, N^4-(2,3-dihydro-1H-indene-5-yl)-5-methyl-N^2-(4-(4-methylpiperazine-1-yl)phenyl)pyrimidine-2,4-diamine]
- inhibition at 0.1 µM [1]: 80.2%
- inhibition at 0.1 µM [2]: 88.9%
- inhibition at 0.1 µM [3]: 87.1%

SMILES: Cc1cnc(Nc2ccc(N3CCN(C)CC3)cc2)nc1Nc1ccc2c(C)n[nH]c2c1 [Compound 5i, 5-methyl-N^4-(3-methyl-1H-indazol-6-yl)-N^2-(4-(4-methylpiperazine-1-yl)phenyl)pyrimidine-2,4-diamine]
- inhibition at 0.1 µM [1]: 85.2%
- inhibition at 0.1 µM [2]: 98%
- IC50 [2]: 7.9 nM
- inhibition at 0.1 µM [3]: 93.4%

SMILES: Cc1cnc(Nc2ccc(N3CCN(C)CC3)cc2)nc1Nc1ccc2cn(CCNC(=O)OC(C)(C)C)nc2c1 [Compound 5j, Tert-butyl (2-(6-((5-methyl-2-((4-(4-methylpiperazine-1-yl)phenyl)amino)-pyrimidine-4-yl)amino)-2H-indazol-2-yl)ethyl) carbamate]
- inhibitory rate on ABL1 [1]: 71.6%
- inhibitory rate on PDGFR-β [2]: 71.1%
- inhibitory rate on FLT3 [3]: 74.3%

SMILES: Cc1cnc(Nc2ccc(N3CCOCC3)cc2)nc1Nc1ccc2cn[nH]c2c1 [Compound 6a, N^4-(1H-indazol-6-yl)-5-methyl-N^2-(4-morphinophenyl) pyrimidine-2,4-diamine]
- inhibitory rate on ABL1 [1]: 98.2%
- inhibitory rate on PDGFR-β [2]: 93.8%
- IC50 [2]: 4.2 nM
- inhibitory rate on FLT3 [3]: 87.2%

SMILES: Cc1cnc(Nc2ccc(N3CCNCC3)cc2)nc1Nc1ccc2cn[nH]c2c1 [Compound 6b, N^4-(1H-indazol-6-yl)-5-methyl-N^2-(4-(piperazine-1-yl)phenyl) py rimidine-2,4-diamine]
- inhibition at 0.1 µM [1]: 91.2%
- inhibition at 0.1 µM [2]: 68.7%
- IC50 [2]: 68.7 nM
- inhibition at 0.1 µM [3]: 87.3%

SMILES: COc1cc(N2CCC(N3CCN(C)CC3)CC2)ccc1Nc1ncc(C)c(Nc2ccc3cn[nH]c3c2)n1 [Compound 6k, N^4-(1H-indazol-6-yl)-N^2-(2-methoxy-4-(4-(4-methylpiperazine-1-yl)piperidine-1-yl)phenyl)-5-methylpyrimidine-2,4-diamine]
- inhibition at 0.1 µM [1]: 47.5%
- inhibition at 0.1 µM [2]: 76.4%
- inhibition at 0.1 µM [3]: 58.4%

SMILES: Cc1cnc(Nc2ccc(C(=O)N3CCN(C)CC3)cc2)nc1Nc1ccc2cn[nH]c2c1 [Compound 6m, (4-((4-((1H-indazol-6-yl)amino)-5-methylpyrimidine-2-yl)amino)phenyl) (4-methylpiperazine-1-yl)methanone]
- inhibition at 0.1 µM [1]: 81%
- inhibition at 0.1 µM [2]: 78.4%
- inhibition at 0.1 µM [3]: 85.6%
